“And” between values parts separate entries of the source, which are not always exact repeats. Identical values can stand only once. Marks after values point to notes of the source that are not given here.
Tests used:
Metabolism of = conditions: tariquidar 15 mg/kg i.v.
P-gp at the BBB [1] = assay: in vivo; conditions: Wistar Unilever, rat
P-gp [2] = conditions: read-out: half-maximum inhibition constant (IC50); substrate transport by P-gp in vitro; cited from earlier work
[3] = humans, ref personal communication Dr. U. Elben, Aväant Pharmaceuticals; cited from earlier work
[4] = humans, single i.v. dose of 2 mg/kg, cited from earlier work
P-gp [5] = conditions: mice, P-gp substrate loperamide, conventional biodistribution; cited from earlier work
[6] = Single i.v. dose of tariquidar in humans; format: in vivo; conditions: single i.v. dose of 2 mg/kg, from Cmax
P-gp at the BBB [7] = system: P-gp at the BBB
[8] = 2T4K model, tariquidar 15 mg/kg i.v. 2 h before PET scan (n=5)
[9] = 2T4K model, with vs without tariquidar 15 mg/kg i.v.

In the case of `COc1cc2c(cc1OC)CN(CCc1ccc(NC(=O)c3cc(OC)c(OC)cc3NC(=O)c3cnc4ccccc4c3)cc1)CC2` [tariquidar], the “Effect of tariquidar administration on metabolism of (R)-11C-verapamil” value (Metabolism of) is listed as “essentially left unaffected”, the ED50 at 2 h (P-gp at the BBB [1]) is listed as 8.4 ± 9.5 mg/kg and the IC50 (P-gp [2]) is listed as 40 nM and ~40 nM. The “bound to plasma proteins” value [3] was 99.5%, the Tolerability [4] was “well tolerated” and the Cmax ([4]; read-out: maximum plasma concentrations (Cmax)) was roughly 2300 nM. The ED50 (P-gp [5]) was 5.6 mg/kg, the unbound concentration [6] was “about 0.012 μM” and the “Increase of K1 after tariquidar, 1T2K model” value (P-gp at the BBB [7]; 1T2K model, tariquidar treatment) was “+632%”. For the same compound, the “DV of (R)-11C-verapamil with tariquidar” value (P-gp at the BBB [7]; [8]) was 3.68±0.81 mL·mL^−1 and 3.68±0.81 (3) mL·mL^−1, the “K1 of (R)-11C-verapamil with tariquidar” value (P-gp at the BBB [7]; [8]) was 0.58±0.20 (9) mL·mL^−1·min^−1 and the “k2 of (R)-11C-verapamil with tariquidar” value (P-gp at the BBB [7]; [8]) was 0.27±0.07 (43) min^−1. The “k3 of (R)-11C-verapamil with tariquidar” value (P-gp at the BBB [7]; [8]) was 0.37±0.17 (66) min^−1, the “k4 of (R)-11C-verapamil with tariquidar” value (P-gp at the BBB [7]; [8]) was 0.66±0.49 (55) min^−1 and the “Relative change of k2” value (P-gp at the BBB [7]; [9]) was −23%. For the same compound, the “Relative change of k3” value (P-gp at the BBB [7]; [9]) was “+27%”, the “Relative change of k4” value (P-gp at the BBB [7]; [9]) was −9% and the “DV (Logan) of (R)-11C-verapamil with tariquidar” value (P-gp at the BBB [7]; Logan analysis, tariquidar 15 mg/kg i.v. 2 h before PET scan (n=5)) was 3.53±0.79 (1) mL·mL^−1. For the same compound, the “Relative change of DV (Logan)” value (P-gp at the BBB [7]; Logan analysis, with vs without tariquidar 15 mg/kg i.v.) was “+1,007^† %”, the Emax (P-gp at the BBB [7]; maximum effect (DV) of dose-response fit, estimate±asymptotic standard error) was 4.5±3.8 and the “Time of peak uptake of activity in brain after tariquidar injection” value (P-gp at the BBB [7]; scan 2, 0-90 min after tariquidar 15 mg/kg i.v.) was 32 ± 5 min. The “Brain uptake of activity after tariquidar vs baseline PET scans” value (P-gp at the BBB [7]; tariquidar 15 mg/kg) was “about 12 fold” and the “Increase of DV of (R)-11C-verapamil after tariquidar vs baseline” value (P-gp at the BBB [7]; tariquidar 15 mg/kg i.v., rat brain) was 12 fold.

Source: publication PMC3690700 (Journal of nuclear medicine : official publication, Society …, 2008)
